Assay results from patent US9463252B2, “Auristatin drug linker conjugates” (priority 2008, dated 2016).

Experiments:
786-O = assay: Cytotoxicity of Auristatin-Peptide-h1F6 conjugates, resazurin assay; format: cell-based, human; conditions: for IC50 786-0: Table 4
Description: (§1) The conjugates contain approximately 4 drugs per antibody.

LP-1 = assay: as above; format: cell-based, human
Description: as §1

Caki-1 = assay: as above; format: cell-based
Description: as §1

L428 [1] = assay: as above; format: cell-based; conditions: for IC50 L428: ~4 drugs/Ab
Description: as §1

U251 = assay: as above; format: cell-based; conditions: Table 4, ~4 drugs/Ab
Description: as §1

UMRC-3 = assay: as above; format: cell-based
Description: as §1

HCT-116 (CD70−) = assay: Cytotoxicity of Auristatin-Peptide-h1F6 conjugates, CD70- control cell line; format: cell-based
Description: as §1

[2] = Tolerability (MTD) of conjugates in mice; format: in vivo, mouse; conditions: h1F6 conjugates, single dose 50 mg/kg, FIG. 15
Procedure: The tolerability, measured as maximum tolerated dose (MTD), was determined in mice based on animals' weight loss after treatment. Animals were usually monitored for 14 days. A conjugate is considered to be tolerated at a determined dose if single iv treatment at such dose results in a transient weight loss of no more than 20% of initial body weight of animals and no other signs of toxicity are observed. […] AF-Met-(D)Lys and AF-Asn-(D)Lys conjugates were tolerated at doses as high as 100 mg/kg (FIG. 7). Corresponding conjugates of auristatins containing Methionine (AM) and Tryptophan (AW) at the C-terminal position of the drug were tolerated even better, up to 150 mg/kg (FIG. 8). […] Thus, the Auristatin-Dipeptide Drug Linkers provide ADCs with significant therapeutic window for therapeutic treatment (e.g., cancer).

Karpas 299 = assay: Cytotoxicity of Auristatin-Peptide-cAC10 conjugates on CD30+ cells; format: cell-based, human; conditions: Table 6, ~4 drugs/Ab
Procedure: (§2) Following the procedure described in Example 57, Auristatin-Dipeptide-cAC10 antibody conjugates were evaluated on CD30+ positive cell lines, Karpas 299, L428 and L540cy. In addition, a control conjugate, cAC10-vc-PABC-MMAF, was used. […] The conjugates contain approximately 4 drugs per antibody.
(§3) Following the procedure described as Examples 57 and 58, the activities of Auristatin-Peptide-cAC10 conjugates were evaluated on CD30^+ cells, such as Karpas 299, L428, and L540cy. The activities of Auristatin-Peptide-hBU12 conjugates were evaluated on CD19^+ cells such as Ramos, SUDHL-4, and ARH-77. The activities of Auristatin-Peptide-anti-LIV-1 conjugates were evaluated on LIV-1 positive cell lines MCF-7 and SKOV-3. The activities of Auristatin-Peptide-BR96 conjugates were evaluated on Le^y positive cells H3396, RCA, and L2987. All conjugates contain approximately 4 drugs per antibody.

L540cy = assay: as above; format: cell-based, human; conditions: Table 6, ~4 drugs/Ab
Procedure: as §2, §3

L428 [3] = assay: as above; format: cell-based; conditions: Table 6, ~4 drugs/Ab
Procedure: as §2, §3

Caki-2 = assay: Cytotoxicity of Auristatin-Peptide-h1F6 conjugates, resazurin assay; format: cell-based; conditions: Table 5; h1F6 conjugates, ~4 drugs/Ab
Procedure: as §1
Following the procedure described as Examples 57 and 58, Auristatin-Peptide-h1F6 conjugates were evaluated on CD70^+ cell, such as 786-O, Caki-1, Caki-2, and L428. Conjugates contain approximately 4 drugs per antibody.

[4] = Table 4, h1F6 conjugates, ~4 drugs/Ab
[5] = Table 9, h1F6-Drug(4) conjugates, mono- vs dipeptide linker
[6] = Table 7, h1F6 conjugates, AF vs MMAF
[7] = Table 8, h1F6 conjugates, D vs L amino acid in second linker position
[8] = Table 5, h1F6 conjugates, ~4 drugs/Ab

| Substance | IC50 786-0 (786-O; h1F6 conjugates, ~4 drugs/Ab) [ng/mL] | IC50 LP-1 (LP-1; [4]) | IC50 Caki-1 (Caki-1; [4]) [ng/mL] | IC50 L428 (L428 [1]; Table 4, h1F6 conjugates) [ng/mL] | IC50 U251 (U251) [ng/mL] | IC50 UMRC-3 (UMRC-3; [4]) [ng/mL] | IC50 HCT-116 (CD70−) (HCT-116 (CD70−); Table 4, ~4 drugs/Ab) [ng/mL] | IC50 Karpas 299 (Karpas 299) [ng/mL] | IC50 L540cy (L540cy) [ng/mL] | IC50 L428 (L428 [3]) [ng/mL] | further results |
| --- | --- | --- | --- | --- | --- | --- | --- | --- | --- | --- | --- |
| AF-Asparagine-Valine-diaminoethane-propionyl-maleimide [AF-Asn-Val] | 12.6 | 174 ng/mL | 22.3 | 11.7 | 251 | 46.8 | >1000 | – | – | – | – |
| AF-Asparagine-diaminoethane-propionyl maleimide [AF-Asn] | – | – | – | – | – | – | – | – | – | – | IC50 786-O (786-O; [5]): 10 ng/mL; IC50 LP-1 (LP-1; [5]): 209 ng/mL; IC50 Caki-1 (Caki-1; [5]): 6 ng/mL; IC50 L-428 (L428 [1]; [5]): 9 ng/mL; IC50 UMRC-3 (UMRC-3; [5]): 28 ng/mL; tolerability at 50 mg/kg dose (in words) [2]: toxic |
| AF-AsparticAcid-Valine-Diaminoethane-Propionyl-Maleimide [AF-Asp-Val] | 18 | 234 ng/mL | 25 | 18 | 407 | 54 | >1000 | – | – | – | – |
| AF-Isoleucine-Proline-diaminoethane-propionyl maleimide [AF-Ile-Pro] | 9.8 | 219 ng/mL | 9 | 5 | 45 | 16 | >1000 | 0.6 | 0.7 | 0.1 | – |
| AF-Isoleucine-Valine-diaminoethane-propionyl-maleimide [AF-Ile-Val] | 3.4 | 19 ng/mL | 3.7 | 2.5 | 44.6 | 19.5 | >1000 | – | – | – | – |
| AF-Methionine-(D)Lysine-diaminoethane-propionyl maleimide [AF-Met-(D)Lys] | 55 | >10,000 ng/mL | 25 | 1698 | 98 | 132 | >1000 | 2 | 3 | 1.5 | IC50 786-O (786-O; [6]): 12 ng/mL; IC50 786-O (786-O; [7]): 12 ng/mL; IC50 786-O (786-O; [5]): 12 ng/mL; IC50 LP-1 (LP-1; [6]): >1000 ng/mL; IC50 LP-1 (LP-1; [7]): >1000 ng/mL; IC50 LP-1 (LP-1; [5]): >1000 ng/mL; IC50 Caki-1 (Caki-1; [6]): 9 ng/mL; IC50 Caki-1 (Caki-1; [7]): 9 ng/mL; IC50 Caki-1 (Caki-1; [5]): 9 ng/mL; IC50 L-428 (L428 [1]; [6]): 158 ng/mL; IC50 L-428 (L428 [1]; [7]): 158 ng/mL; IC50 L-428 (L428 [1]; [5]): 158 ng/mL; IC50 UMRC-3 (UMRC-3; [6]): 182 ng/mL; IC50 UMRC-3 (UMRC-3; [7]): 182 ng/mL; IC50 UMRC-3 (UMRC-3; [5]): 182 ng/mL |
| AF-Norvaline-(D)Aspartic Acid-diaminoethane-propionyl maleimide [AF-NorVal-(D)Asp] | 28 | 537 ng/mL | 12 | 24 | 78 | 25 | >1000 | 0.5 | 0.6 | 0.09 | – |
| AF-Phenylglycine-(D)Lysine-diaminoethane-propionyl maleimide [AF-PhenylGly-(D)Lys] | 339 | >10,000 ng/mL | 44 | 275 | 98 | 1096 | >1000 | 21 | 6 | 2 | – |
| AF-Trimethyllysine-Proline-diaminoethane-propionyl-maleimide [AF-Me3Lys-Pro] | 20 | 298 ng/mL | 11 | 24 | 78 | 30 | >1000 | 0.6 | 0.8 | 0.09 | – |
| AF-Tyrosine-(D)Aspartic Acid-diaminoethane-propionyl maleimide [AF-Tyr-(D)Asp] | 24 | 398 ng/mL | 9 | 27 | 72 | 32 | >1000 | 0.6 | 0.7 | 0.06 | – |
| AF-Tyrosine-Valine-diaminoethane-propionyl-maleimide [AF-Tyr-Val] | 3.7 | 34 ng/mL | 7.0 | 3.0 | 46.8 | 19.5 | >1000 | – | – | – | – |
| AF-β-alanine-(D)Aspartic Acid-diaminoethane-propionyl maleimide [AF-β-Ala-(D)Asp] | 525 | >10,000 ng/mL | 1585 | 1096 | 93 | 132 | >1000 | 371 | 1.6 | 0.5 | – |
| vc-PABC-MMAF [reference compound] | 7 | 22 ng/mL | 3 | 7 | 10 | 14 | >1000 | 3 | 3 | 0.5 | IC50 786-O (786-O; [8]): 5 ng/mL; IC50 Caki-1 (Caki-1; [8]): 12 ng/mL; IC50 L428 (L428 [1]; Table 5, h1F6 conjugates): 4 ng/mL; IC50 HCT-116 (CD70−) (HCT-116 (CD70−); Table 5, ~4 drugs/Ab): >1000 ng/mL; IC50 Caki-2 (Caki-2): 11 ng/mL |
